From ChEMBL document CHEMBL3769352, “Design, synthesis, and testing of an isoquinoline-3-carboxylic-based novel anti-tumor lead” (Bioorg Med Chem Lett, 2015) come the findings set out here.

The term pIC50 denotes the IC50 on a negative log10 scale, so that one unit is a factor of ten. Lower therefore signals a large IC50.

pIC50: −log10 of the molar value.

In one data set the test system is HeLa. As to the kind of experiment: Cytotoxicity against human HeLa cells after 48 hrs by MTT assay. It is filed as functional, cell-based. A general note: Tetrazolium assays rely on reduction of a dye to a coloured formazan, in cell work by metabolically active cells.
The subject of another data set is MCF7. The experiment in a line: Cytotoxicity against human MCF7 cells after 48 hrs by MTT assay. It counts as functional, cell-based. Particulars: MCF7, 48 h.
In another data set the test system is HepG2. The experiment in a line: Cytotoxicity against human HepG2 cells after 48 hrs by MTT assay. It is filed as functional, cell-based. Particulars: HepG2, 48 h.
A further data set has as its system A2780. The experiment in a line: Cytotoxicity against human A2780 cells after 48 hrs by MTT assay. It is filed as functional, cell-based. As to conditions: A2780, 48 h.
The subject of a further data set is KB. The experiment in a line: Cytotoxicity against human KB cells after 48 hrs by MTT assay. It is filed as functional, cell-based.
Data set [1] is described as follows: Cytotoxicity against human Bel7402 cells after 48 hrs by MTT assay. It counts as functional, cell-based. As to conditions: Bel-7402, 48 h.
The test system of data set [2] is CCRF S-180. The experiment in a line: Antitumor activity against mouse S180 cells allografted in Swiss mouse assessed as tumour weight at 2 umol/kg, sc administered every day for 12 days measured on fourteenth day (reference value: 1.662 +/- 0.355 g). It is filed as functional.
In data set [3] the test system is Mus musculus. As to the kind of experiment: Toxicity in Swiss mouse allografted with mouse S180 cells assessed as reduction in liver to body weight ratio at 2 umol/kg, sc administered every day for 12 days measured on fourteenth day. It counts as organism-based, CCRF S-180. Particulars: in vivo, 288 h.
Data set [4] concerns Mus musculus. The experiment in a line: Toxicity in Swiss mouse allografted with mouse S180 cells assessed as reduction in spleen weight index at 2 umol/kg, sc administered every day for 12 days measured on fourteenth day. It counts as organism-based, CCRF S-180. As to conditions: in vivo, 288 h.
Data set [5] relates to Mus musculus. As to the kind of experiment: Toxicity in Swiss mouse allografted with mouse S180 cells assessed as body weight at 2 umol/kg, sc administered every day for 12 days measured every day during compound administration. It is filed as organism-based, CCRF S-180. Particulars: in vivo, 288 h.
The test system of data set [6] is CCRF S-180. The experiment in a line: Antitumor activity against mouse S180 cells allografted in Swiss mouse assessed as tumour weight at 8 umol/kg, sc administered every day for 12 days measured on fourteenth day (reference value: 1.662 +/- 0.355 g). It counts as functional.
For data set [7], the system named is Mus musculus. The experiment in a line: Toxicity in Swiss mouse allografted with mouse S180 cells assessed as effect on brain to body weight ratio at 2 umol/kg, sc administered every day for 12 days measured on fourteenth day. It counts as organism-based, CCRF S-180. As to conditions: in vivo, 288 h.
The test system of data set [8] is Mus musculus. As to the kind of experiment: Toxicity in Swiss mouse allografted with mouse S180 cells assessed as effect on heart to body weight ratio at 2 umol/kg, sc administered every day for 12 days measured on fourteenth day. It is filed as organism-based, CCRF S-180. As to conditions: in vivo, 288 h.
The subject of data set [9] is Mus musculus. As to the kind of experiment: Toxicity in Swiss mouse allografted with mouse S180 cells assessed as effect on liver to body weight ratio at 2 umol/kg, sc administered every day for 12 days measured on fourteenth day. It is filed as organism-based, CCRF S-180. As to conditions: in vivo, 288 h.
For data set [10], the system named is Mus musculus. The experiment in a line: Toxicity in Swiss mouse allografted with mouse S180 cells assessed as effect on spleen to body weight ratio at 2 umol/kg, sc administered every day for 12 days measured on fourteenth day. It is filed as organism-based, CCRF S-180. Particulars: in vivo, 288 h.
Data set [11] has as its system Mus musculus. The experiment in a line: Toxicity in Swiss mouse allografted with mouse S180 cells assessed as effect on kidney to body weight ratio at 2 umol/kg, sc administered every day for 12 days measured on fourteenth day. It counts as organism-based, CCRF S-180. Particulars: in vivo, 288 h.
Data set [12] deals with Mus musculus. As to the kind of experiment: Toxicity in Swiss mouse allografted with mouse S180 cells assessed as spleen weight index at 2 umol/kg, sc administered every day for 12 days measured on fourteenth day. It is filed as organism-based, CCRF S-180. Particulars: in vivo, 288 h.
In data set [13] the test system is Mus musculus. The experiment in a line: Toxicity in Swiss mouse allografted with mouse S180 cells assessed as effect on brain to body weight ratio at 8 umol/kg, sc administered every day for 12 days measured on fourteenth day. It counts as organism-based, CCRF S-180. Particulars: in vivo, 288 h.
In data set [14] the test system is Mus musculus. As to the kind of experiment: Toxicity in Swiss mouse allografted with mouse S180 cells assessed as effect on heart to body weight ratio at 8 umol/kg, sc administered every day for 12 days measured on fourteenth day. It counts as organism-based, CCRF S-180. Particulars: in vivo, 288 h.
The subject of data set [15] is Mus musculus. As to the kind of experiment: Toxicity in Swiss mouse allografted with mouse S180 cells assessed as effect on liver to body weight ratio at 8 umol/kg, sc administered every day for 12 days measured on fourteenth day. It is filed as organism-based, CCRF S-180. As to conditions: in vivo, 288 h.
Data set [16] concerns Mus musculus. The experiment in a line: Toxicity in Swiss mouse allografted with mouse S180 cells assessed as effect on spleen to body weight ratio at 8 umol/kg, sc administered every day for 12 days measured on fourteenth day. It counts as organism-based, CCRF S-180. Particulars: in vivo, 288 h.
For data set [17], the system named is Mus musculus. The experiment in a line: Toxicity in Swiss mouse allografted with mouse S180 cells assessed as effect on kidney to body weight ratio at 8 umol/kg, sc administered every day for 12 days measured on fourteenth day. As to conditions: in vivo, 288 h. It is filed as organism-based, CCRF S-180.
For data set [18], the system named is Mus musculus. As to the kind of experiment: Toxicity in Swiss mouse allografted with mouse S180 cells assessed as spleen weight index at 8 umol/kg, sc administered every day for 12 days measured on fourteenth day. It is filed as organism-based, CCRF S-180. As to conditions: in vivo, 288 h.
Data set [19] deals with Mus musculus. The experiment in a line: Toxicity in Swiss mouse allografted with mouse S180 cells assessed as effect on body weight at 8 umol/kg, sc administered every day for 12 days measured every day during compound administration. Particulars: in vivo, 288 h. It counts as organism-based, CCRF S-180.

`COc1cccc2c1C(=O)c1c(O)c3c(c(O)c1C2=O)C[C@@](O)(C(=O)CO)C[C@@H]3O[C@H]1C[C@H](N)[C@H](O)[C@H](C)O1` [DOXORUBICIN]: the pIC50 was 6.22 with HeLa; 6.80 in the data set on MCF7; 6.24 in the data set with HepG2; 6.57 with A2780; 6.89 in the data set on KB; 5.87 in data set [1]. The Activity in the data set with CCRF S-180 [2] is 0.401 g; in the data set with Mus musculus [3], “Toxic”; in the data set with Mus musculus [4], “Toxic”; in the data set with Mus musculus [5], 24 g.
Regarding `O=C(O)c1cc2ccccc2cn1`, the pIC50 (in the data set on HeLa; in the data set with MCF7; in the data set on HepG2; in the data set on A2780; in the data set with KB; in data set [1]) was < 4.00 each time. Moreover, the Activity is on record as 1.104 g in the data set on CCRF S-180 [6]; “Non-toxic” in the data set with Mus musculus [7]; “Non-toxic” in the data set on Mus musculus [8]; “Non-toxic” with Mus musculus [9]; “Non-toxic” in the data set on Mus musculus [10]; “Non-toxic” in the data set with Mus musculus [11]. Also, the Activity entry with Mus musculus [12] is “Non-toxic”; in the data set with Mus musculus [5] it was 33 g.
`O=C(NCCN(CCNC(=O)c1cc2ccccc2cn1)CCNC(=O)c1cc2ccccc2cn1)c1ccccc1`: the pIC50 with HeLa was 4.47; in the data set with MCF7, 4.60; with HepG2 it was 4.42; with A2780 it was 4.47; with KB, 4.12; in data set [1], 4.06. In addition, the Activity is recorded as 0.952 g with CCRF S-180 [2]; “Non-toxic” in the data set with Mus musculus [13]; “Non-toxic” in the data set with Mus musculus [14]; “Non-toxic” in the data set on Mus musculus [15]; “Non-toxic” in the data set with Mus musculus [16]; “Non-toxic” with Mus musculus [17]. Further, the Activity result in the data set on Mus musculus [18] is on record as “Non-toxic”; in the data set with Mus musculus [19] it was 33 g.
